Source: PubChem BioAssay (NCI)
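In this assay, cells in 96-well plates receive the compound at five concentrations for 48 hours. Endpoints are linearly interpolated between the surrounding concentrations. The concentration for full growth arrest is given as TGI.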

What was measured:
Experiment in all cases: inhibition of tumour cell growth, NCI panel, 48 h
SF-539 CNS = system: SF-539 CNS
UACC-257 melanoma = system: UACC-257 melanoma
PC-3 prostate = system: PC-3 prostate
ACHN renal = system: ACHN renal
SR leukemia = system: SR leukemia
CCRF-CEM leukemia = system: CCRF-CEM leukemia
LOX IMVI melanoma = system: LOX IMVI melanoma
A498 renal = system: A498 renal
K-562 leukemia = system: K-562 leukemia
UO-31 renal = system: UO-31 renal
IGROV1 ovarian = system: IGROV1 ovarian
NCI-H522 lung = system: NCI-H522 lung
SK-OV-3 ovarian = system: SK-OV-3 ovarian
MDA-N = system: MDA-N
SK-MEL-28 melanoma = system: SK-MEL-28 melanoma
SK-MEL-2 melanoma = system: SK-MEL-2 melanoma
EKVX NSCLC = system: EKVX NSCLC
HT29 colon = system: HT29 colon
COLO 205 colon = system: COLO 205 colon
A549 NSCLC = system: A549 NSCLC
786-0 renal = system: 786-0 renal
SF-295 CNS = system: SF-295 CNS
U251 CNS = system: U251 CNS
SF-268 CNS = system: SF-268 CNS
BT-549 breast = system: BT-549 breast
HCC-2998 colon = system: HCC-2998 colon
UACC-62 melanoma = system: UACC-62 melanoma
HCT-15 colon = system: HCT-15 colon
MDA-MB-435 = system: MDA-MB-435
TK-10 renal = system: TK-10 renal
SNB-19 CNS = system: SNB-19 CNS
M14 melanoma = system: M14 melanoma
NCI-H23 lung = system: NCI-H23 lung
MDA-MB-231 breast = system: MDA-MB-231 breast
HL-60(TB) leukemia = system: HL-60(TB) leukemia
CAKI-1 renal = system: CAKI-1 renal
T-47D breast = system: T-47D breast
NCI-H460 lung = system: NCI-H460 lung
OVCAR-3 ovarian = system: OVCAR-3 ovarian
SNB-75 CNS = system: SNB-75 CNS
SK-MEL-5 melanoma = system: SK-MEL-5 melanoma
HOP-62 NSCLC = system: HOP-62 NSCLC
SN12C renal = system: SN12C renal
KM12 colon = system: KM12 colon
SW-620 colon = system: SW-620 colon
MOLT-4 leukemia = system: MOLT-4 leukemia
OVCAR-8 ovarian = system: OVCAR-8 ovarian
RPMI-8226 leukemia = system: RPMI-8226 leukemia
OVCAR-5 ovarian = system: OVCAR-5 ovarian
MALME-3M melanoma = system: MALME-3M melanoma
HCT-116 colon = system: HCT-116 colon
NCI-H226 lung = system: NCI-H226 lung
HS 578T breast = system: HS 578T breast
RXF 393 renal = system: RXF 393 renal
DU-145 prostate = system: DU-145 prostate
MCF7 breast = system: MCF7 breast
OVCAR-4 ovarian = system: OVCAR-4 ovarian
HOP-92 NSCLC = system: HOP-92 NSCLC

Measured: TGI

COc1cccc(C2c3cc4c(cc3OC(NNc3ccccc3)C2C)OCO4)c1OC (configuration not stated)
31.6 µM: CCRF-CEM leukemia
53.3 µM: MOLT-4 leukemia
15.7 µM: COLO 205 colon
68.7 µM: DU-145 prostate
25.1 µM: TK-10 renal
76.2 µM: MCF7 breast
84.2 µM: SF-539 CNS
6.79 µM: HCC-2998 colon
23.4 µM: HCT-116 colon
96.9 µM: NCI-H23 lung
80.1 µM: HS 578T breast
32.3 µM: EKVX NSCLC
58.2 µM: HT29 colon
88.1 µM: A498 renal
70.7 µM: MALME-3M melanoma
18.8 µM: SR leukemia
71.5 µM: UACC-257 melanoma
9.05 µM: K-562 leukemia
4.24 µM: SF-295 CNS
44.1 µM: RXF 393 renal
17 µM: HL-60(TB) leukemia
74.4 µM: NCI-H226 lung
46.6 µM: PC-3 prostate
67.2 µM: BT-549 breast
24 µM: OVCAR-3 ovarian
not listed: OVCAR-4 ovarian | HOP-92 NSCLC
> 100 µM: all other assays above

O=C1CCN(CCC(F)(F)C(F)(F)C(F)(F)C(F)(F)C(F)(F)C(F)(F)F)C(=S)N1CCC(F)(F)C(F)(F)C(F)(F)C(F)(F)C(F)(F)C(F)(F)F
not listed: LOX IMVI melanoma | SK-MEL-2 melanoma | HCT-15 colon | RPMI-8226 leukemia
> 100 µM: all other assays above

COc1c(Cl)nc2ccccc2c1N=[N+]=[N-]
94.8 µM: BT-549 breast
60.9 µM: A498 renal
not listed: NCI-H522 lung | SK-MEL-2 melanoma | EKVX NSCLC | HCT-15 colon | OVCAR-8 ovarian | NCI-H226 lung
> 100 µM: all other assays above
